# Experimental data taken from patent publication US7982021B2, “Nucleic acid molecules encoding emission ratiometric indicators of phosphoinositides” (The Johns Hopkins University, priority 2006, dated 2011).
# System: PIP3 and PI(3,4)P2
# Assay: FRET emission ratio imaging of InPAkt reporters in NIH3T3 cells upon growth factor stimulation
# Format: cell-based
# Conditions: for t1/2 of InPAkt response produced by the growth factor / time to reach plateau of InPAkt response produced by the growth factor / InPAkt emission ratio increase produced by the growth factor: NIH3T3 cells expressing InPAkt; for t1/2 of InPAkt response produced by the growth factor / time to reach plateau of InPAkt response produced by the growth factor: single ligand; for InPAkt emission ratio increase produced by the growth factor: single ligand: 50 ng/ml PDGF, 50 nM IGF-1 or 100 ng/ml insulin; for InPAkt emission ratio increase, sequential stimulation: agonists applied sequentially: insulin; for InPAkt emission ratio increase, sequential stimulation / t1/2 of InPAkt response, sequential stimulation / time of InPAkt emission ratio increase, sequential stimulation: then IGF-1, then PDGF; for t1/2 of InPAkt response, sequential stimulation / time of InPAkt emission ratio increase, sequential stimulation: insulin
# Description: Cell Culture. HEK293 and NIH3T3 cells were plated onto sterilized glass coverslips in 35-mm dishes and grown to 50-90% confluency in DMEM (10% FBS) at 37° C. with 5% CO2. Cells were transfected with FUGENE®-6 (Roche), then serum starved for 24-36 h before imaging. Colocalization studies were performed by incubating transfected cells with Hoechst 33342 cell-permeable dyes (Molecular Probes) for staining nucleic acids.
# Imaging. Cells were washed twice with Hanks' balanced salt solution buffer and maintained in the dark at room temperature with the addition of 50 ng/ml rat PDGF (Sigma), 100 ng/ml bovine insulin (Calbiochem), 50 nM IGF-1 (Sigma), or 20 μM LY294002 (Sigma) as described. Cells were imaged on a Zeiss Axiovert 200M microscope with a cooled CCD camera MicroMAX BFT512 (Roper Scientific, Trenton, N.J.) controlled by METAFLUOR 6.2 software (Universal Imaging, Downingtown, Pa.). Dual emission ratio imaging used a 420DF20 excitation filter, a 450DRLP dichroic mirror, and two emission filters (475DF40 for CFP and 535DF25 for YFP) alternated by a filter-changer Lambda 10-2 (Sutter Instruments, Novato, Calif.). Exposure time was 50-500 ms, and images were taken every 15-30 s. Fluorescence images were background-corrected by subtracting autofluorescence intensity of untransfected cells (or background with no cells) from the emission intensities of cells expressing fluorescent reporters. The ratios of yellow-to-cyan emissions were then calculated at different time points.
# We next checked the ability of this chimera to detect changes in 3′ PIs in response to agonist stimulation. NIH3T3 cells expressing this construct were serum-starved then stimulated with 50 ng/ml platelet-derived growth factor (PDGF). Stimulation of endogenous PDGF receptor (PDGFR) generated a FRET increase, resulting in an increase in the ratio of yellow-to-cyan emissions (FIGS. 1D, 1E), which was detectable within several seconds and reached a plateau of 25.4±3.7% [average±std] […] The FRET change occurred in the plasma membrane and was accompanied by the translocation of the reporter (FIG. 1D), reiterating that 3′ PIs are mainly produced at the plasma membrane (22). To verify that the FRET response is caused by binding of PIP3 and PI(3,4)P2, we generated a variant of the reporter in which two critical residues in the PH domain, Arg23 and Arg25, which mainly contribute to D-3 phosphate recognition (20), are mutated.
# [1] = NIH3T3 cells, PDGF first, followed by IGF-1
Substance,t1/2 of InPAkt response produced by the growth factor [min],time to reach plateau of InPAkt response produced by the growth factor [min],InPAkt emission ratio increase produced by the growth factor,"InPAkt emission ratio response, reversed order of ligand addition [1]","InPAkt emission ratio increase, sequential stimulation (NIH3T3 cells)","t1/2 of InPAkt response, sequential stimulation (NIH3T3 cells) [min]","time of InPAkt emission ratio increase, sequential stimulation (NIH3T3 cells) [min]","t1/2 of InPAkt response, reversed order of ligand addition [1] [min]","time of InPAkt response, reversed order of ligand addition [1] [min]"
IGF-1: insulin-like growth factor 1 (Sigma),5.4 ± 0.4,10 to 12,6.5±0.8%,not enhanced,6.8±0.9%,5.2 ± 0.1,10 to 12,–,–
PDGF,3.45 ± 0.65,5 to 9,25.4±3.7%,24.2 ± 1.5%,14.6±1.4%,3.2 ± 0.2,6 to 7,3.9 ± 0.2,7 to 9
insulin: bovine insulin (Calbiochem),–,–,did not generate any discernable response,–,did not generate any appreciable change,–,–,–,–
